# Assay results reported in patent publication US10370366B2 (Flatley Discovery Lab, LLC, priority 2013, dated 2019).
# Target: T1, human F508del CFTR (Homo sapiens, UniProt P13569, DEL508-508)
# T1 construct: expressed in transfected cells; host or cells: Fisher Rat Thyroid (FRT) cells
# Assay: CFTR-YFP High Throughput Assay
# Format: cell-based
# Details: FRT cells expressing human F508del CFTR and YFP; for Emax: EMax normalized to the positive control, read-out: % Efficacy
# Description: Assays for Detecting and Measuring the Effect of Compounds on F508del-CFTR Channels CFTR-YFP High Throughput Assay-CFTR Corrector Protocol:
# This protocol is designed to selectively screen small molecule compounds for F508del CFTR corrector activities in the HTS YFP (yellow fluorescent protein) flux assay. In this protocol, the cells are incubated with testing compounds for 24 hours, washed with PBS, stimulated with forskolin and a standard potentiator, and fluorescence in each plate well is measured kinetically read on a 384-well HTS plate reader, such as the Hamamatsu FDSS-6000.
# YFP fluorescence intensity values are acquired at high speed before and after iodide buffer is injected to the assay cells. Iodide enters the cells via active CFTR channels in the plasma membrane, and quenches the YFP fluorescence. The rate of fluorescence quenching is proportionate to the total CFTR activity in the cell membrane. F508del CFTR correctors increase the number of CFTR molecules in the testing cell plasma membrane, and thereby accelerate YFP quenching.
# This method was initially developed for bench top plate readers (Galietta et al., 2001), and was adapted to the HTS format (Sui et al. Assay Drug Dev. Technol. 2010).
# Fisher Rat Thyroid (FRT) cells stably expressing both human F508del CFTR and a halide-sensitive yellow fluorescent protein (YFP-H148Q/I152L 25,22) (Galietta et al. Am. J. Physiol Cell Physiol 281(5), C1734, 2001) were cultured on plastic surface in Coon's modified Ham's F12 medium supplemented with FBS 10%, L-glutamine 2 mM, penicillin 100 U/ml, and streptomycin 100 µg/ml. G418 (0.75-1.0 mg/ml) and zeocin (3.2 ug/ml) were used for selection of FRT cells expressing F508del CFTR and YFP. For primary screening, FRT cells were plated into 384-well black wall, transparent bottom microtiter plates (Costar; Corning Inc.) at a cell density of 20,000-40,000 per well. Test compound was applied to the cells at varying concentrations ranging from 2 nM-40 μM in either a 2-fold or 3-fold dilution series. Cells were incubated in a cell culture incubator at 37° C. with 5% CO2 for 24-26 h. Assay plates were washed with DPBS media (Thermo, cat# SH30028.02) to remove unbound cells and compound. Stimulation media (25 μL) containing 20 μM Forskolin & 30 μM P3 [6-(Ethyl-phenyl-sulfonyl)-4-oxo-1,4-dihydro-quinoline-3-carboxylic acid 2-methoxy-benzylamide] in Hams F-12 coon's modified media was added to the plate wells and incubated at room temperature for 60-120 min. […] (10 mM HEPES, 1 mM MgCl2, 3 mM KCl, 1 mM CaCl2, 150 mM NaI) was then added and fluorescence quench curves (Excitation 500 nm/Emission 540 nm; exposure 136 ms) were immediately recorded on an FDSS-6000 plate reader (Hamamatsu). Quench rates were derived from least squares fitting of the data as described by Sui et al (2010).
# CFTR-YFP High Throughput Assay-CFTR Potentiator Protocol:
# This protocol is designed to selectively screen small molecule compounds for F508del CFTR potentiator activities in the HTS YFP flux assay. Such compounds act acutely to stimulate CFTR already expressed on the membrane surface. In this protocol, the cells are incubated at 27° C. for 24 hours to homogeneously boost F508del CFTR expression in the cell membrane (low temperature correction), washed with PBS, treated with test compound, and CFTR activity is stimulated with forskolin for 1-2 hr. Measurement of ion flux is initiated by addition of iodide-containing buffer, and YFP quenching is kinetically recorded using a 384-well HTS plate reader, such as the Hamamatsu FDSS-6000.
# YFP fluorescence intensity values are acquired at high speed over a 1 min time course before and after iodide buffer is injected to the assay cells. Iodide enters the cells via active CFTR channels in the plasma membrane, and quenches the YFP fluorescence. The rate of fluorescence quenching is proportionate to total CFTR activity in the cell membrane. […]
# T1 sequence (P13569 with tags, fused parts or gaps DEL508-508): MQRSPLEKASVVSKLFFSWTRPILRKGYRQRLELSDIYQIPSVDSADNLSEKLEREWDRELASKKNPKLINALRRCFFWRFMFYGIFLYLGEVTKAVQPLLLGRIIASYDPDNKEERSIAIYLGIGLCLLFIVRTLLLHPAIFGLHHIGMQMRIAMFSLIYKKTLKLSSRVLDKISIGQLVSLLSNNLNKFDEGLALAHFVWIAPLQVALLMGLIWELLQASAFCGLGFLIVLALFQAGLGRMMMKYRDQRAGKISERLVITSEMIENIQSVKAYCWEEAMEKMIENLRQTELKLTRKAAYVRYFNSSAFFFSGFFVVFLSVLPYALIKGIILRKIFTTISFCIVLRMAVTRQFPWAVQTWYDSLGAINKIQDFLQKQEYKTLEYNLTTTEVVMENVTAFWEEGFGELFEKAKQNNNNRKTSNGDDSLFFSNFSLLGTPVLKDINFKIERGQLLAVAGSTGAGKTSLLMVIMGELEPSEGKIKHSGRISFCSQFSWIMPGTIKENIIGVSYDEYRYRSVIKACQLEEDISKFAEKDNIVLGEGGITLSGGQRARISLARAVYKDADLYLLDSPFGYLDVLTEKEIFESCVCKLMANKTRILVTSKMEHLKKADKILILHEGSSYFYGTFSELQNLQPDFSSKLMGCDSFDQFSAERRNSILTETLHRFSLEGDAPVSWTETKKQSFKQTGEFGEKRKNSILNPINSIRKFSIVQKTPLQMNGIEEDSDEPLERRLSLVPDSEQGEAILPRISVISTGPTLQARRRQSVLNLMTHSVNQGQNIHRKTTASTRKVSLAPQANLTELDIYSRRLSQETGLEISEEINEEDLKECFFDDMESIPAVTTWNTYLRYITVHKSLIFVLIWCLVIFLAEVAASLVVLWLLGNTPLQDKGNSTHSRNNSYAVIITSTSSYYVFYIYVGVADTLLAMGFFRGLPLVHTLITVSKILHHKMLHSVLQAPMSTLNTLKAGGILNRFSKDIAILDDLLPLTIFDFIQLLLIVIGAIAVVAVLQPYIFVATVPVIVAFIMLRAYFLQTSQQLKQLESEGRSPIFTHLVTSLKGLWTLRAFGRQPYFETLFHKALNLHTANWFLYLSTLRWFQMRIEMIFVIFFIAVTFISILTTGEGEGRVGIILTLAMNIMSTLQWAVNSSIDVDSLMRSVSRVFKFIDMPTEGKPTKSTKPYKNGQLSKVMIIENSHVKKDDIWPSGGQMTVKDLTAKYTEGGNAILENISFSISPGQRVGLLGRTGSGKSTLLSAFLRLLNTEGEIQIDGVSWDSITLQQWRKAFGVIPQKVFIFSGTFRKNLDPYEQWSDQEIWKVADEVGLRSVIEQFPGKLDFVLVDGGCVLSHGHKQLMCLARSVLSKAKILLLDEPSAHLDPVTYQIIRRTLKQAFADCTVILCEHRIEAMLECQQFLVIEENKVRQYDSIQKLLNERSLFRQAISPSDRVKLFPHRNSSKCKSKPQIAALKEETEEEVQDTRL
Structure (SMILES),Emax,EC50
"CCc1ccc(N(CC)C(=O)Cn2nc(-c3ccccc3)c3ccccc3c2=O)cc1 [Example 1, N-ethyl-N-(4-ethylphenyl)-2-(1-oxo-4-phenylphthalazin-2(1H)-yl)acetamide]",10 to 30%,–
"CCc1ccc(N(CC)C(=O)Cn2nc(-c3ccc(O)cc3)c3ccccc3c2=O)cc1 [Example 2, N-ethyl-N-(4-ethylphenyl)-2-(4-(4-hydroxyphenyl)-1-oxophthalazin-2(1H)-yl)acetamide]",10 to 30%,–
"CCc1ccc(N(CC)C(=O)Cn2nc(-c3cccnc3)c3ccccc3c2=O)cc1 [Example 3, N-ethyl-N-(4-ethylphenyl)-2-(1-oxo-4-(pyridin-3-yl)phthalazin-2(1H)-yl)acetamide]",30 to 80%,–
"CCc1ccc(N(CC)C(=O)Cn2nc(-c3ccncc3)c3ccccc3c2=O)cc1 [Example 4, N-ethyl-N-(4-ethylphenyl)-2-(1-oxo-4-(pyridin-4-yl)phthalazin-2(1H)-yl)acetamide]",30 to 80%,–
"CCc1ccc(N(CC)C(=O)Cn2nc(-c3cccc4ncccc34)c3ccccc3c2=O)cc1 [Example 5, N-ethyl-N-(4-ethylphenyl)-2-(1-oxo-4-(quinolin-5-yl)phthalazin-2(1H)-yl)acetamide]",30 to 80%,–
"CCc1ccc(N(CC)C(=O)Cn2nc(-c3cccc4cnccc34)c3ccccc3c2=O)cc1 [Example 6, N-ethyl-N-(4-ethylphenyl)-2-(4-(isoquinolin-5-yl)-1-oxophthalazin-2(1H)-yl)acetamide]",30 to 80%,–
"CCc1ccc(N(CC)C(=O)Cn2nc(-c3cncnc3)c3ccccc3c2=O)cc1 [Example 7, N-ethyl-N-(4-ethylphenyl)-2-(1-oxo-4-(pyrimidin-5-yl)phthalazin-2(1H)-yl)acetamide]",30 to 80%,> 20 µM
"CCc1ccc(N(CC)C(=O)Cn2nc(-c3cccc(N)c3)c3ccccc3c2=O)cc1 [Example 8, 2-(4-(3-aminophenyl)-1-oxophthalazin-2(1H)-yl)-N-ethyl-N-(4-ethylphenyl)acetamide]",30 to 80%,< 10 µM
"CCc1ccc(N(CC)C(=O)Cn2nc(-c3cccc(O)c3)c3ccccc3c2=O)cc1 [Example 9, N-ethyl-N-(4-ethylphenyl)-2-(4-(3-hydroxyphenyl)-1-oxophthalazin-2(1H)-yl)acetamide]",10 to 30%,< 10 µM
"CCc1ccc(N(CC)C(=O)Cn2nc(-c3cccc4c3OCO4)c3ccccc3c2=O)cc1 [Example 10, 2-(4-(benzo[d][1,3]dioxol-4-yl)-1-oxophthalazin-2(1H)-yl)-N-ethyl-N-(4-ethylphenyl)acetamide]",10 to 30%,> 20 µM
"CCc1ccc(N(CC)C(=O)Cn2nc(-c3cccc(C(N)=O)c3)c3ccccc3c2=O)cc1 [Example 11, 3-(3-(2-(ethyl(4-ethylphenyl)amino)-2-oxoethyl)-4-oxo-3,4-dihydrophthalazin-1-yl)benzamide]",30 to 80%,10 to 20 µM
"CCc1ccc(N(CC)C(=O)Cn2nc(-c3ccc(C(N)=O)cc3)c3ccccc3c2=O)cc1 [Example 12, 4-(3-(2-(ethyl(4-ethylphenyl)amino)-2-oxoethyl)-4-oxo-3,4-dihydrophthalazin-1-yl)benzamide]",30 to 80%,> 20 µM
"CCc1ccc(N(CC)C(=O)Cn2nc(-c3ccc(S(N)(=O)=O)cc3)c3ccccc3c2=O)cc1 [Example 13, N-ethyl-N-(4-ethylphenyl)-2-(1-oxo-4-(4-sulfamoylphenyl)phthalazin-2(1H)-yl)acetamide]",30 to 80%,10 to 20 µM
"CCc1ccc(N(CC)C(=O)Cn2nc(-c3ccc(C(=O)O)cc3)c3ccccc3c2=O)cc1 [Example 14, 4-(3-(2-(ethyl(4-ethylphenyl)amino)-2-oxoethyl)-4-oxo-3,4-dihydrophthalazin-1-yl)benzoic acid]",30 to 80%,> 20 µM
"CCc1ccc(N(CC)C(=O)Cn2nc(-c3ccc(C(=O)OC)cc3)c3ccccc3c2=O)cc1 [Example 15, methyl 4-(3-(2-(ethyl(4-ethylphenyl)amino)-2-oxoethyl)-4-oxo-3,4-dihydrophthalazin-1-yl)benzoate]",10 to 30%,> 20 µM
"CCc1ccc(N(CC)C(=O)Cn2nc(-c3ccc(S(C)(=O)=O)cc3)c3ccccc3c2=O)cc1 [Example 16, N-ethyl-N-(4-ethylphenyl)-2-(4-(4-(methylsulfanoyl)phenyl)-1-oxophthalazin-2(1H)-yl)acetamide]",30 to 80%,< 10 µM
"CCc1ccc(N(CC)C(=O)Cn2nc(-c3cccc(C#N)c3)c3ccccc3c2=O)cc1 [Example 17, 2-(4-(3-cyanophenyl)-1-oxophthalazin-2(1H)-yl)-N-ethyl-N-(4-ethylphenyl)acetamide]",30 to 80%,< 10 µM
"CCN(C(=O)Cn1nc(-c2ccc(S(N)(=O)=O)cc2)c2ccccc2c1=O)c1ccc2c(c1)OC(F)(F)O2 [Example 18, N-(2,2-difluorobenzo[d][1, 3]dioxol-5-yl)-N-ethyl-2-(1-oxo-4-(4-sulfamoylphenyl)phthalazin-2(1H)-yl)acetamide]",> 80%,10 to 20 µM
"CCN(C(=O)Cn1nc(-c2ccc(C(N)=O)cc2)c2ccccc2c1=O)c1ccc2c(c1)OC(F)(F)O2 [Example 19, 4-(3-(2-((2,2-difluorobenzo[d][1,3]dioxol-5-yl)(ethyl)amino)-2-oxoethyl)-4-oxo-3,4-dihydrophthalazin-1-yl)benzamide]",> 80%,10 to 20 µM
"CCN(C(=O)Cn1nc(-c2ccc(C(=O)O)cc2)c2ccccc2c1=O)c1ccc2c(c1)OC(F)(F)O2 [Example 20, 4-(3-(2-((2,2-difluorobenzo[d][1,3]dioxol-5-yl)(ethyl)amino)-2-oxoethyl)-4-oxo-3,4-dihydrophthalazin-1-yl)benzoic acid]",30 to 80%,> 20 µM
"CCN(C(=O)Cn1nc(-c2cccc(C#N)c2)c2ccccc2c1=O)c1ccc2c(c1)OC(F)(F)O2 [Example 21, 2-(4-(3-cyanophenyl)-1-oxophthalazin-2(1H)-yl)-N-(2,2-difluorobenzo[d][1,3]dioxol-5-yl)-N-ethylacetamide]",> 80%,< 10 µM
"CCN(C(=O)Cn1nc(-c2cccc(F)c2)c2ccccc2c1=O)c1ccc2c(c1)OC(F)(F)O2 [Example 23, N-(2,2-difluorobenzo[d][1, 3]dioxol-5-yl)-N-ethyl-2-(4-(3-fluorophenyl)-1-oxophthalazin-2(1H)-yl)acetamide]",> 80%,< 10 µM
"CCN(C(=O)Cn1nc(-c2cccnc2)c2ccccc2c1=O)c1ccc2c(c1)OC(F)(F)O2 [Example 24, N-(2,2-difluorobenzo[d][1, 3]dioxol-5-yl)-N-ethyl-2-(1-oxo-4-(pyridin-3-yl)phthalazin-2(1H)-yl)acetamide]",30 to 80%,< 10 µM
"CCc1ccc(N(CC)C(=O)Cn2nc(Cc3cccnc3)c3ccccc3c2=O)cc1 [Example 25, N-ethyl-N-(4-ethylphenyl)-2-(1-oxo-4-(pyridin-3-ylmethyl)phthalazin-2(1H)-yl)acetamide]",30 to 80%,10 to 20 µM
"CCN(C(=O)Cn1nc(Cc2cccnc2)c2ccccc2c1=O)c1ccc2c(c1)OC(F)(F)O2 [Example 26, N-(2,2-difluorobenzo[d][1,3]dioxol-5-yl)-N-ethyl-2-(1-oxo-4-(pyridin-3-ylmethyl)phthalazin-2(1H)-yl)acetamide]",30 to 80%,–
"COc1ccc(N(C)C(=O)Cn2nc(Cc3cccnc3)c3ccccc3c2=O)cc1 [Example 27, N-(4-methoxyphenyl)-N-methyl-2-(1-oxo-4-(pyridin-3-ylmethyl)phthalazin-2(1H)-yl)acetamide]",30 to 80%,–
